Measured values: PubChem BioAssay (NCI)
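Growth conditions: 96-well plates. Treatment: test compound, 48 hours, 5 concentrations. Analysis: linear interpolation between bracketing concentrations; unreached endpoints set to highest concentration. GI50 marks 50% less growth. TGI marks complete inhibition of growth.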

Experiments:
Assay in all cases: NCI-60 cell line screen, 48 h
[1] = system: U251 CNS
[2] = system: 786-0 renal
[3] = system: CCRF-CEM leukemia
[4] = system: SK-MEL-28 melanoma
[5] = system: M14 melanoma
[6] = system: SNB-19 CNS
[7] = system: BT-549 breast
[8] = system: HOP-92 NSCLC
[9] = system: SK-MEL-2 melanoma
[10] = system: OVCAR-8 ovarian

COc1ccc(-c2nn(-c3cccc(Cl)c3)cc2-c2cc(-c3ccccc3)[nH]c(=O)c2C#N)cc1
GI50 [1]: 1.48 µM | TGI [1]: 6.76 µM | GI50 [2]: 1.6 µM | TGI [2]: 7.25 µM | GI50 [3]: 8.38 µM | TGI [3]: 19.3 µM | GI50 [4]: 2.93 µM | TGI [4]: > 50 µM | GI50 [5]: 2.27 µM | TGI [5]: 34.6 µM | GI50 [6]: 2.76 µM | TGI [6]: 38.6 µM | GI50 [7]: 1.46 µM | TGI [7]: 17.8 µM | GI50 [8]: 0.654 µM | TGI [8]: 2.14 µM | GI50 [9]: 2.13 µM | TGI [9]: 9.35 µM | GI50 [10]: 1.67 µM | TGI [10]: > 50 µM

O=C(Nc1cc(Nc2ncccc2-c2ncnc3nc[nH]c23)ccc1F)c1cc(C(F)(F)F)cc(C(F)(F)F)c1
GI50 [1]: 2.88 µM | TGI [1]: > 10 µM | GI50 [2]: 3.55 µM | TGI [2]: 9.52 µM | GI50 [3]: 2.97 µM | TGI [3]: > 10 µM | GI50 [4]: 0.34 µM | TGI [4]: 1.68 µM | GI50 [5]: 0.33 µM | TGI [5]: 1.6 µM | GI50 [6]: 3.78 µM | TGI [6]: > 10 µM | GI50 [7]: 2.87 µM | TGI [7]: 6.54 µM | GI50 [8]: 0.891 µM | TGI [8]: 3.92 µM | GI50 [9]: 0.355 µM | TGI [9]: 2.41 µM | GI50 [10]: 3.67 µM | TGI [10]: > 10 µM

COc1ccc(-c2nccn2-c2ccc(OC)cc2)cc1
GI50 [1]: 26.3 µM | TGI [1]: > 72.9 µM | GI50 [2]: 21.9 µM | TGI [2]: 60.6 µM | GI50 [3]: 23.5 µM | TGI [3]: 76.7 µM | GI50 [4]: 19.1 µM | TGI [4]: 60.6 µM | GI50 [5]: 20.5 µM | TGI [5]: 56.7 µM | GI50 [6]: 41.8 µM | TGI [6]: > 100 µM | GI50 [7]: 28.7 µM | TGI [7]: > 94.5 µM | GI50 [8]: 2.45 µM | TGI [8]: > 41.7 µM | GI50 [9]: 25.3 µM | TGI [9]: > 73.5 µM | GI50 [10]: 23.9 µM | TGI [10]: 67.5 µM

CC(C)c1[nH]nc2c1N=C(c1ccccc1Cl)c1cc([N+](=O)[O-])ccc1N2
GI50 [1]: 6.16 µM | TGI [1]: > 25 µM | GI50 [2]: 5.74 µM | TGI [2]: > 24 µM | GI50 [3]: 5.34 µM | TGI [3]: > 17.8 µM | GI50 [4]: 6.26 µM | TGI [4]: > 25 µM | GI50 [5]: 7.63 µM | TGI [5]: > 25 µM | GI50 [6]: 11.8 µM | TGI [6]: > 25 µM | GI50 [7]: 6.66 µM | TGI [7]: > 22.1 µM | GI50 [8]: 4 µM | TGI [8]: 12.6 µM | GI50 [9]: 5.49 µM | TGI [9]: 13.4 µM | GI50 [10]: 9.1 µM | TGI [10]: > 25 µM

COc1ccc(-c2cnnn2-c2nonc2-n2cccc2)cc1
GI50 [1]: 0.344 µM | TGI [1]: 8.41 µM | GI50 [2]: 0.488 µM | TGI [2]: > 34 µM | GI50 [3]: 0.228 µM | TGI [3]: 3.85 µM | GI50 [4]: 0.52 µM | TGI [4]: > 100 µM | GI50 [5]: 0.209 µM | TGI [5]: 6.62 µM | GI50 [6]: 0.722 µM | TGI [6]: > 100 µM | GI50 [7]: 0.698 µM | TGI [7]: 34.6 µM | GI50 [8]: 0.437 µM | TGI [8]: 43.9 µM | GI50 [9]: 0.189 µM | TGI [9]: 0.8 µM | GI50 [10]: 0.425 µM | TGI [10]: 18.9 µM

O=C(c1ccco1)c1c(C(F)(F)F)n([O-])c2ccc(C(F)(F)F)cc2[n+]1=O
GI50 [1]: 0.217 µM | TGI [1]: 0.536 µM | GI50 [2]: 0.426 µM | TGI [2]: 0.831 µM | GI50 [3]: 0.207 µM | TGI [3]: 0.793 µM | GI50 [4]: 0.717 µM | TGI [4]: 1.91 µM | GI50 [5]: 1.04 µM | TGI [5]: 2.48 µM | GI50 [6]: 1.51 µM | TGI [6]: 2.92 µM | GI50 [7]: 0.177 µM | TGI [7]: 0.339 µM | GI50 [8]: 0.28 µM | TGI [8]: 0.718 µM | GI50 [9]: 1.71 µM | TGI [9]: 3.49 µM | GI50 [10]: 0.31 µM | TGI [10]: 1.15 µM

NNCCc1ccc(NC(=O)CCCc2ccc(C(=O)Nc3ccccc3N)cc2)cc1
GI50 [1]: 12 µM | TGI [1]: > 100 µM | GI50 [2]: 15.7 µM | TGI [2]: > 100 µM | GI50 [3]: 3.35 µM | TGI [3]: > 100 µM | GI50 [4]: 12.1 µM | TGI [4]: > 100 µM | GI50 [5]: 15.2 µM | TGI [5]: > 100 µM | GI50 [6]: 63.1 µM | TGI [6]: > 100 µM | GI50 [7]: 9.5 µM | TGI [7]: > 100 µM | GI50 [8]: 7.26 µM | TGI [8]: > 100 µM | GI50 [9]: 7.49 µM | TGI [9]: > 100 µM | GI50 [10]: 8.52 µM | TGI [10]: > 100 µM

N#CCCN1C/C(=C/c2ccc(Br)cc2)C(=O)/C(=C/c2ccc(Br)cc2)C1
GI50 [1]: 0.409 µM | TGI [1]: 1.58 µM | GI50 [2]: 1.38 µM | TGI [2]: 2.84 µM | GI50 [3]: 0.341 µM | TGI [3]: > 100 µM | GI50 [4]: 1.77 µM | TGI [4]: 3.51 µM | GI50 [5]: 1.99 µM | TGI [5]: 4.15 µM | GI50 [6]: 1.59 µM | TGI [6]: 3.76 µM | GI50 [7]: 1.56 µM | TGI [7]: 3.04 µM | GI50 [8]: 1.71 µM | TGI [8]: 4.89 µM | GI50 [9]: 2.6 µM | TGI [9]: 6.54 µM | GI50 [10]: 1.14 µM | TGI [10]: > 100 µM

O=C(/C=C/c1ccccc1)c1ccccc1
TGI [1]: > 10 µM | TGI [2]: > 10 µM | TGI [3]: > 7.45 µM | TGI [4]: > 10 µM | TGI [5]: > 10 µM | TGI [6]: > 10 µM | TGI [7]: > 10 µM | TGI [8]: > 10 µM | TGI [9]: > 10 µM | TGI [10]: > 10 µM

CCCc1cc(=O)n2c(C(=O)Nc3ccc(Cl)cc3C)c(C(=O)Nc3ccc(F)cc3)sc2n1
GI50 [1]: 1.51 µM | TGI [1]: 4.37 µM | GI50 [2]: 2.36 µM | TGI [2]: 5.96 µM | GI50 [3]: 16.4 µM | TGI [3]: 103 µM | GI50 [4]: 8.07 µM | TGI [4]: 46 µM | GI50 [5]: 4.67 µM | TGI [5]: 23.7 µM | GI50 [6]: 23.8 µM | TGI [6]: 74.2 µM | GI50 [7]: 27.7 µM | TGI [7]: 61 µM | GI50 [8]: 0.166 µM | TGI [8]: 0.989 µM | GI50 [9]: 4.13 µM | TGI [9]: 21.9 µM | GI50 [10]: 2.05 µM | TGI [10]: 5.14 µM

N[C@H](CCC(=O)N[C@@H](Cc1c[nH]c2ccccc12)C(=O)O)C(=O)O
GI50 [1]: > 100 µM | TGI [1]: > 100 µM | GI50 [2]: > 100 µM | TGI [2]: > 100 µM | GI50 [3]: > 100 µM | TGI [3]: > 100 µM | GI50 [4]: > 100 µM | TGI [4]: > 100 µM | GI50 [5]: > 100 µM | TGI [5]: > 100 µM | GI50 [6]: > 100 µM | TGI [6]: > 100 µM | GI50 [7]: > 100 µM | TGI [7]: > 100 µM | GI50 [8]: > 100 µM | TGI [8]: > 100 µM | GI50 [9]: > 100 µM | TGI [9]: > 100 µM | GI50 [10]: > 100 µM | TGI [10]: > 100 µM

Nc1cc(Br)c(-c2nnc(CCC(=O)c3nc4ccccc4[nH]3)o2)c(Br)c1
GI50 [1]: 3.5 µM | TGI [1]: > 100 µM | GI50 [2]: 21 µM | TGI [2]: 61.7 µM | GI50 [3]: 3.81 µM | TGI [3]: > 100 µM | GI50 [4]: 6.31 µM | TGI [4]: 79 µM | GI50 [5]: 17.5 µM | TGI [5]: 55.5 µM | GI50 [6]: 20.1 µM | TGI [6]: > 100 µM | GI50 [7]: 6.82 µM | TGI [7]: > 100 µM | GI50 [8]: 0.499 µM | TGI [8]: 19.9 µM | GI50 [9]: 4.3 µM | TGI [9]: > 100 µM | GI50 [10]: 21.6 µM | TGI [10]: > 100 µM

CCC/C=C/C=C/C1CC(O)C(O)C(=O)C1CO (stereo not given)
TGI [1]: > 100 µM | TGI [2]: > 100 µM | TGI [3]: > 100 µM | TGI [4]: > 100 µM | TGI [5]: > 100 µM | TGI [6]: > 100 µM | TGI [7]: > 100 µM | TGI [8]: > 100 µM | TGI [9]: > 100 µM | TGI [10]: > 100 µM
